# Experimental data from patent US9593305B2, “Differentiation of pluripotent stem cells” (Janssen Biotech, Inc., priority 2008, dated 2017).
# Tested on: H1 human embryonic stem cells
# Experiment: Analog screening with GDF-8 and growth factor/agonist pool (Example 8, Tables 7 and 8)
# Assay type: cell-based
# Set-up: Cell Number, % of positive control / Sox17 Expression, % of positive control: tested at 2.5 µM
# Conditions: for outcome in analog screening of hits from primary screening: 2.5 μM with GDF-8 and growth factor/agonist pool
# Method in brief: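 H1 hESC clusters, washed free of growth factors, fed on alternate days over 4 days with DMEM:F12, 0.5% FCS, 2.5 μM compound, 25 ng/ml GDF-8 plus a 50 ng/ml growth-factor pool. Fixed cells immunostained for SOX17 and imaged; total SOX17 intensity normalised to positive control.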
# [1] = Plate 1, compound + EGF, FGF, PDGF-A, VEGF, PDGF-D, muscimol, GDF8
# [2] = Plate 1, compound + EGF, FGF, PDGF-A, VEGF, PDGF-D, muscimol, GDF8, positive control Activin A/Wnt3a
# [3] = Table 8: hits with greater than 25% activity of the positive control, with GDF-8 and growth factors/agonists
# [4] = Plate 2, compound + EGF, FGF, PDGF-A, VEGF, PDGF-D, muscimol, GDF8
# [5] = Plate 2, compound + EGF, FGF, PDGF-A, VEGF, PDGF-D, muscimol, GDF8, positive control Activin A/Wnt3a
# [6] = EGF, FGF, PDGF-A, VEGF, PDGF-D, muscimol, GDF8
SMILES,"Cell Number, Average Total Cell Number [1]","Sox17 Expression, Average Total Intensity [1]","Cell Number, % of positive control [2]","Sox17 Expression, % of positive control [2]","Cell Number, % of positive control [3]","Sox17 Expression, % of positive control [3]","Sox17 Expression, Average Total Intensity [3]",outcome in analog screening of hits from primary screening,"Cell Number, Average Total Cell Number [4]","Sox17 Expression, Average Total Intensity [4]","Cell Number, % of positive control [5]","Sox17 Expression, % of positive control [5]","Cell Number, % of positive control [6] [%]","Cell Number, Average Total Cell Number [6]","Sox17 Expression, % of positive control [6] [%]","Sox17 Expression, Average Total Intensity [6]"
"CN1CCC(=O)NCCCNc2cccc(c2)-c2ncnc(n2)Nc2cccc(c2)C1 [Compound 21, 14-Methyl-3,5,7,14,18,22,29-heptaazatetracyclo[21.3.1.1˜2,6˜0.1˜8,12˜]nonacosa-1(27), 2(29), 3,5,8(28), 9,11,23,25-nonaen-17-one]",12640,1.65E+08,94.4 % of positive control,65.9 % of positive control,94.4 % of positive control,65.9 % of positive control,1.65E+08,,,,,,,,,
"O=C1CCN2CCN(CC2)Cc2cc(Cl)cc(c2)Nc2ncnc(n2)-c2cncc(c2)CCCN1 [Compound 34, 5-Chloro-1,8,10,12,16,22,26,32-octaazapentacyclo[24.2.2.1˜3.7˜0.1˜9,13˜0.1˜14.18˜]tritriaconta-3(33), 4,6,9(32), 10,12,14(31), 15,17-nonaen-23-one]",,,,,56.3 % of positive control,35.0 % of positive control,9.99E+07,repeated as hits,8907,9.99E+07,56.3 % of positive control,35.0 % of positive control,,,,
"O=C1CCN2CCN(CC2)Cc2cccc(c2)Nc2ncnc(n2)-c2ccnc(c2)NCCCN1 [Compound 13, 1,8,10,12,17,19,23,27,33-Nonaazapentacyclo[25.2.2.1˜3,7˜0.1˜9.13˜1˜14.18˜]tetratriaconta-3(34), 4,6,9(33), 10,12,14(32), 15,17-nonaen-24-one]",,,,,,,,,9123,1.13E+08,57.7 % of positive control,39.7 % of positive control,52.6,7045,28.8,7.22E+07
"CCN1CC(=O)NCCCc2cc(ccn2)-c2ncnc(n2)Nc2cc(Cl)cc(c2)C1 [Compound 14, 10-Chloro-14-ethyl-3,5,7,14,17,22,27-heptaazatetracyclo[19.3.1.1˜2,6˜1˜8,12˜]heptacosa-1(25), 2(27), 3,5,8(26), 9,11,21,23-nonaen-16-one]",9344,1.23E+08,69.8 % of positive control,49.0 % of positive control,,,,,,,,,53.5,8464,29.1,8.33E+07
"C=CCN1CC(=O)NCCCc2cncc(c2)-c2ncnc(n2)Nc2cccc(c2)C1 [Compound 40, 14-Prop-2-en-1-yl-3,5,7,14,17,23,27-heptaazatetracyclo[19.3.1.1˜2.6˜0.1˜8,12˜]heptacosa-1(25), 2(27), 3,5,8(26), 9,11,21,23-nonaen-16-one]",,,,,25.6 % of positive control,28.8 % of positive control,8.23E+07,,4049,8.23E+07,25.6 % of positive control,28.8 % of positive control,,,,
"CCN1CC(=O)NCCCc2cncc(c2)-c2ncnc(n2)Nc2cc(Cl)cc(c2)C1 [Compound 35, 10-Chloro-14-ethyl-3,5,7,14,17,23,27-heptaazatetracyclo[19.3.1.1˜2,6˜0.1˜8,12]Theptacosa-1(25), 2(27), 3,5,8(26), 9,11,21,23-nonaen-16-one]",,,,,66.2 % of positive control,55.7 % of positive control,1.59E+08,repeated as hits,10461,1.59E+08,66.2 % of positive control,55.7 % of positive control,,,,
"CCN1CC(=O)NCCCc2cccc(c2)-c2ncnc(n2)Nc2cccc(c2)C1 [Compound 15, 14-Ethyl-3,5,7,14,17,27-hexaazatetracyclo[19.3.1.1˜2,6˜1-8.12˜]heptacosa-1(25), 2(27), 3,5,8(26), 9,11,21,23-nonaen-16-one]",8448,8.64E+07,63.1 % of positive control,34.5 % of positive control,,,,,,,,,45.8,7234,27.8,7.95E+07
"CN1CCCC(=O)NCCCc2cncc(c2)-c2ncnc(n2)Nc2cccc(c2)C1 [Compound 20, 14-Methyl-3,5,7,14,19,25,29-heptaazatetracyclo[21.3.1.1˜2,6˜0.1˜8,12˜]nonacosa-1(27), 2(29), 3,5,8(28), 9,11,23,25-nonaen-18-one]",9434,1.48E+08,70.4 % of positive control,59.1 % of positive control,,,,,7346,8.90E+07,46.5 % of positive control,31.2 % of positive control,70.4,9434,59.1,1.48E+08
"CN1CCC(=O)NCCCc2cncc(c2)-c2ncnc(n2)Nc2cccc(c2)C1 [Compound 19, 14-Methyl-3,5,7,14,18,24,28-heptaazatetracyclo[20.3.1.1˜2,6˜0.1˜8,12˜]octacosa-1(26), 2(28), 3,5,8(27), 9,11,22,24-nonaen-17-one]",,,,,,,,,8425,1.19E+08,53.3 % of positive control,41.6 % of positive control,58.2,7799,27.2,6.82E+07
"O=C1CCN2CCN(CC2)Cc2cccc(c2)Nc2ncnc(n2)-c2cncc(c2)CCCN1 [Compound 23, 1,8,10,12,16,22,26,32-Octaazapentacyclo[24.2.2.1-3,7˜0.1˜9,13˜0.1˜14,18˜]tritriaconta-3(33), 4,6,9(32), 10,12,14(31), 15,17-nonaen-23-one]",12165,2.15E+08,90.8 % of positive control,86.0 % of positive control,90.8 % of positive control,86.0 % of positive control,2.15E+08,,,,,,,,,
"O=C1NCCCc2cncc(c2)-c2ncnc(n2)Nc2cccc(c2)CN2CCCC1C2 (stereo not shown) [Compound 17, 3,5,7,14,20,26,31-Heptaazapentacyclo[22.3.1.1-2,6˜1˜8,12˜1˜14,18˜]hentriaconta-1(28), 2(31), 3,5,8(30), 9,11,24,26-nonaen-19-one]",,,,,,,,,,,,,59.6,7988,45.0,1.13E+08
"CCN1CC(=O)NCCCc2cc(ccc2F)-c2ncnc(n2)Nc2cc(Cl)cc(c2)C1 [Compound 25, 10-Chloro-14-ethyl-22-fluoro-3,5,7,14,17,27-hexaazatetracyclo[19.3.1.1˜2,6˜0.1˜8,12˜]heptacosa-1(25), 2(27), 3,5,8(26), 9,11,21,23-nonaen-16-one]",,,,,41.6 % of positive control,26.6 % of positive control,7.60E+07,,6571,7.60E+07,41.6 % of positive control,26.6 % of positive control,,,,
"O=C1NCCCc2cncc(c2)-c2ncnc(n2)Nc2cccc(c2)CN2CCC[C@@H]12 [Compound 18, (18S)-3,5,7,14,20,26,30-Heptaazapentacyclo[22.3.1.1˜2,6˜1˜8,12˜0.0˜14,18˜]triaconta-1(28), 2(30), 3,5,8(29), 9,11,24,26-nonaen-19-one]",13037,1.63E+08,97.3 % of positive control,65.2 % of positive control,,,,,,,,,55.3,8742,35.4,1.01E+08
